A value given as a limit tells only on which side of the number the result lay.

Test system in the first data set: not given
Experiment: not given
Settings: not given
For the compound `O=C1C2=C(NC(=S)NC2c2cncc(Br)c2)c2ccccc21` (stereo not shown), the melting point (usually the temperature, or range, at which the solid turns liquid) is 294.61 °C.

Consider `COc1cccc(C2NC(=S)NC3=C2C(=O)c2ccccc23)c1` (stereo not shown) [Co. No. 1], for which the melting point came to 295.22 °C. Same read-out and setting: as for `COc1cccc([C@H]2NC(=S)NC3=C2C(=O)c2ccccc23)c1` [Co. No. 2], the figure is 252.73 °C; as for `COc1cccc([C@@H]2NC(=S)NC3=C2C(=O)c2ccccc23)c1` [Co. No. 3], 253.6 °C; as for `COc1cccc(C2NC(=O)N(Cc3ccccc3)C3=C2C(=O)c2ccccc23)c1` (stereo not shown) [Co. No. 4], 188.65 °C. `COc1cc(OC)cc(C2NC(=S)NC3=C2C(=O)c2ccccc23)c1` (stereo not shown) [Co. No. 5] gave a melting point of 287.08 °C. Still for that read-out and setting: the same measure for `O=C1C2=C(NC(=S)NC2c2cccc(O)c2)c2ccccc21` (stereo not shown) [Co. No. 6]: 288.04 °C; for `COc1ccc(F)c(C2NC(=S)NC3=C2C(=O)c2ccccc23)c1` (stereo not shown) [Co. No. 10]: 289.27 °C; for `O=C1C2=C(NC(=S)NC2c2cccc3c2OCO3)c2ccccc21` (stereo not shown) [Co. No. 12]: 289.34 °C. `O=C1C2=C(NC(=S)NC2c2cccc(OCCO)c2)c2ccccc21` (stereo not shown) [Co. No. 13] gave a melting point of 261.08 °C. `O=C1C2=C(NC(=S)NC2c2cccc(CO)c2)c2ccccc21` (stereo not shown) [Co. No. 14] showed a melting point of 265.63 °C. On to `COc1ccc(OC)c(C2NC(=S)NC3=C2C(=O)c2ccccc23)c1` (stereo not shown) [Co. No. 15], for which the melting point was determined as 295.33 °C. On the same count and under the same terms, the same measure for `COc1cccc(C2NC(=S)NC3=C2C(=O)c2ccccc23)c1F` (stereo not shown) [Co. No. 16]: 287.05 °C; for `COCCCOc1cccc([C@H]2NC(=O)NC3=C2C(=O)c2ccccc23)c1` [Co. No. 18]: 206.47 °C; for `COCCCOc1cccc([C@@H]2NC(=O)NC3=C2C(=O)c2ccccc23)c1` [Co. No. 19]: 207.44 °C. The same measure, in the same setting: as for `COc1ccc(Oc2cccc(C3NC(=S)NC4=C3C(=O)c3ccccc34)c2)cc1` (stereo not shown) [Co. No. 20], the figure is 269.04 °C; as for `CCN(CC)CCOc1cccc(C2NC(=S)NC3=C2C(=O)c2ccccc23)c1` (stereo not shown) [Co. No. 22], 243.58 °C; as for `O=C1C2=C(NC(=S)NC2c2cccc(OCCCOc3ccc(F)cc3)c2)c2ccccc21` (stereo not shown) [Co. No. 23], 245.01 °C. Take `CN(C)CCCOc1cccc(C2NC(=S)NC3=C2C(=O)c2ccccc23)c1` (stereo not shown) [Co. No. 24]: the melting point stood at 237.9 °C.

Take `O=C1C2=C(NC(=S)NC2c2cccc(OCCCCO)c2)c2ccccc21` (stereo not shown) [Co. No. 25]: the melting point stood at 224.49 °C. On the same count and under the same terms, the same measure for `CC(=O)OCCCCOc1cccc(C2NC(=S)NC3=C2C(=O)c2ccccc23)c1` (stereo not shown) [Co. No. 26]: 199.5 °C; for `COc1cccc(C2C3=C(NC(=S)N2C)c2ccccc2C3=O)c1` (stereo not shown) [Co. No. 27]: 286.94 °C. Same read-out and setting: the same measure for `O=C1C2=C(NC(=S)NC2c2cccc(-c3ccc(C(F)(F)F)cc3)c2)c2ccccc21` (stereo not shown) [Co. No. 31]: 149.46 °C.

A further data set deals with T1, hTRPA1 (Homo sapiens, UniProt O75762).
T1 construct: expressed in transfected cells
T1 sequence (O75762 whole entry): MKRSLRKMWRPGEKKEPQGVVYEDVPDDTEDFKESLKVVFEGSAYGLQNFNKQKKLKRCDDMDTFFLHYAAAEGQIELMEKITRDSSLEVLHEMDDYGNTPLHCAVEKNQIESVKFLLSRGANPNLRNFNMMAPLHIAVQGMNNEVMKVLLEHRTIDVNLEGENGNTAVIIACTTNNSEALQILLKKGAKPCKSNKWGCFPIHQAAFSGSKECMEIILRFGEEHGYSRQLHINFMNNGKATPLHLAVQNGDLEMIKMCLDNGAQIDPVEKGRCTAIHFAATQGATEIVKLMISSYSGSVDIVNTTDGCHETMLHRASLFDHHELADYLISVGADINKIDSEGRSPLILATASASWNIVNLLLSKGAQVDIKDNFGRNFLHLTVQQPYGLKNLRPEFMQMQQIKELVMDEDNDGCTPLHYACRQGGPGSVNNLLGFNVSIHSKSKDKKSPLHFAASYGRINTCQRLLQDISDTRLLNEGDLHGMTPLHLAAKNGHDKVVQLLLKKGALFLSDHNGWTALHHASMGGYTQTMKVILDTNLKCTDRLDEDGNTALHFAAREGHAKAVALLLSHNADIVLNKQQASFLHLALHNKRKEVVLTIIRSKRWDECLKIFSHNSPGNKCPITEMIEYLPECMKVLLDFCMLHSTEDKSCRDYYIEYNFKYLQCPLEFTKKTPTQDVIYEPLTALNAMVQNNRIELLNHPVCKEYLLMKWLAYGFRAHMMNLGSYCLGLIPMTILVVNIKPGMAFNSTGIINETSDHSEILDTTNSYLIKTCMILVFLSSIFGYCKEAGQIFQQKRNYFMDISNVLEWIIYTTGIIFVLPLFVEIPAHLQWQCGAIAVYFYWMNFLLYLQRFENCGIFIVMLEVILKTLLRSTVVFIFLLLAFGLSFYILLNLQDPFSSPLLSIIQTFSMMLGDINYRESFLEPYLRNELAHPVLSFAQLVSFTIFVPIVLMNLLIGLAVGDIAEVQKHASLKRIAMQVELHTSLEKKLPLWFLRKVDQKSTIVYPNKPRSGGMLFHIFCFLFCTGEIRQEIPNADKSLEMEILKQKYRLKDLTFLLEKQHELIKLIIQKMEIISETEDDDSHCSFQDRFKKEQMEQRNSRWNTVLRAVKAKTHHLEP
Description: Ca2+ fluorometry TRPA1 antagonism in hTRPA1/TREx-HEK293 cells (FDSS). It is filed as cell-based. To be noted: 11H-dibenzo[b,e]azepine-10-carboxylic acid methyl ester as TRPA1 agonist (25 nM), hTRPA1-HEK cells, Fluo4-AM. The source says: The Human TRPA1 gene was cloned into the pT-REx-Dest30 inducible vector and afterwards stably transfected in T-Rex^TM-293 cells (purchased from Invitrogen, Merelbeke, Belgium). This tetracyclin inducible hTRPA1 expression system was used in order to prevent Ca^2+ overload in the cultured cells due to sustained TRPA1 expression. hTRPAl/TREx-HEK293 cells (referred to as hTRPA1 cells in the following text) were maintained under standard sterile cell culture conditions.
Binding of an agonist to the TRPA1 ion-channel activates and opens the ion-channel which causes a robust increase in intracellular Ca^2+ concentration. For detecting and measuring intracellular Ca^2+ concentration, cells were loaded with a Ca^2+-sensitive dye. Changes in fluorescence in the cell, that correspond to changes in Ca^2+ concentration in the cell, can kinetically be monitored with the FDSS instrument (Hamamatsu) and are indicative for agonism towards the TRPA1 ion channel and this can be reduced by TRPA1-receptor antagonists.
The cells were seeded in poly-D-lysine-coated 384-well round bottom polypropylene plates (Costar Corning, Data Packaging, Cambridge Mass., USA) at 12000 cells/well. 50 ng/ml tetracycline was added to induce the hTRPA1 expression 24 h before the experiment.
The cells were loaded with 5 mg/l Fluo4-AM (Molecular Probes, Invitrogen, Merelbeke, Belgium) dissolved in HBSS seeding medium supplemented with 0.7 g/l Probenecid (Sigma) and incubated for 1 h at 37° C. and subsequently at 20° C. for 1 to 2 h. The fluorescence was measured in the FDSS 6000 imaging based plate reader (Hamamutsu Photonics K.K., Hamamutsu City, Japan). The excitation wavelength was 488 nm and the emission wavelength 540 nm. After a control period of 12 seconds the JNJ compounds were added and the Ca^2+ signal was measured within 14 minutes after application. Finally, the control TRPA1 agonist 11H-dibenzo[b,e]azepine-10-carboxylic acid methyl ester [the synthesis of which is hereafter described as compound (D-6)] or BITC (benzylisothiocyanate, FLUKA) was added at a final concentration of 25 nM. […] The emission ratio was calculated by dividing the emission signal (Em540) by the first Em540 signal of the control period to compensate for the background fluorescence. On every 384 well plate 4 series of DMSO control experiments were performed of which 2 with and 2 without control agonist 11H-dibenzo[b,e]azepine-10-carboxylic acid methyl ester or BITC. For intracellular Ca^2+ measurements compound stock solutions (10 or 100 mM) were further diluted in DMSO in order to obtain finally 1% DMSO in the extracellular solution.
`COc1cccc(C2NC(=S)NC3=C2C(=O)c2ccccc23)c1` (stereo not shown) [compound 1]: the 50% inhibitory concentration (IC50) (as a rule, the concentration at which inhibition is half-maximal) was about 128 nM.

The compound `COc1cccc([C@H]2NC(=S)NC3=C2C(=O)c2ccccc23)c1` [compound 2] registered an IC50 of about 76 nM. `COc1cccc([C@@H]2NC(=S)NC3=C2C(=O)c2ccccc23)c1` [compound 3] came in with a half-inhibitory concentration (IC50) of over 10000 nM. The same measure, in the same setting: as for `COc1cccc(C2NC(=O)N(Cc3ccccc3)C3=C2C(=O)c2ccccc23)c1` (stereo not shown) [compound 4], the figure is about 6030 nM; as for `COc1cc(OC)cc(C2NC(=S)NC3=C2C(=O)c2ccccc23)c1` (stereo not shown) [compound 5], about 2780 nM. In the case of `O=C1C2=C(NC(=S)NC2c2cccc(O)c2)c2ccccc21` (stereo not shown) [compound 6], the IC50 was about 636 nM.

`COCCCOc1cccc(C2NC(=S)NC3=C2C(=O)c2ccccc23)c1` (stereo not shown) [compound 7] registered an IC50 of 47 nM. Same read-out and setting: as for `O=C1C2=C(NC(=S)NC2c2cccc(F)c2)c2ccccc21` (stereo not shown) [compound 8], the figure is about 1060 nM. The compound `COc1cccc(C2NC(=S)NC3=C2C(=O)c2ccccc23)c1OC` (stereo not shown) [compound 9] came in with a 50% inhibitory concentration (IC50) of over 10000 nM. Still for that read-out and setting: as for `COc1ccc(F)c(C2NC(=S)NC3=C2C(=O)c2ccccc23)c1` (stereo not shown) [compound 10], the figure is about 365 nM. Same read-out and setting: the same measure for `O=C1C2=C(NC(=S)NC2c2cccc(Br)c2)c2ccccc21` (stereo not shown) [compound 11]: 495 nM; for `O=C1C2=C(NC(=S)NC2c2cccc3c2OCO3)c2ccccc21` (stereo not shown) [compound 12]: about 4410 nM; for `O=C1C2=C(NC(=S)NC2c2cccc(OCCO)c2)c2ccccc21` (stereo not shown) [compound 13]: 213 nM. Same read-out and setting: the same measure for `O=C1C2=C(NC(=S)NC2c2cccc(CO)c2)c2ccccc21` (stereo not shown) [compound 14]: about 708 nM.

`COc1ccc(OC)c(C2NC(=S)NC3=C2C(=O)c2ccccc23)c1` (stereo not shown) [compound 15] returned an IC50 of over 10000 nM. Same read-out and setting: as for `COc1cccc(C2NC(=S)NC3=C2C(=O)c2ccccc23)c1F` (stereo not shown) [compound 16], the figure is about 287 nM; as for `COCCCOc1cccc([C@H]2NC(=O)NC3=C2C(=O)c2ccccc23)c1` [compound 18], 1320 nM; as for `COCCCOc1cccc([C@@H]2NC(=O)NC3=C2C(=O)c2ccccc23)c1` [compound 19], over 10000 nM. On the same count and under the same terms, as for `CCCCOc1cccc(C2NC(=S)NC3=C2C(=O)c2ccccc23)c1` (stereo not shown) [compound 21], the figure is 314 nM; as for `CCN(CC)CCOc1cccc(C2NC(=S)NC3=C2C(=O)c2ccccc23)c1` (stereo not shown) [compound 22], 1200 nM; as for `O=C1C2=C(NC(=S)NC2c2cccc(OCCCOc3ccc(F)cc3)c2)c2ccccc21` (stereo not shown) [compound 23], 4860 nM. Still for that read-out and setting: the same measure for `O=C1C2=C(NC(=S)NC2c2cccc(OCCCCO)c2)c2ccccc21` (stereo not shown) [compound 25]: about 685 nM; for `CC(=O)OCCCCOc1cccc(C2NC(=S)NC3=C2C(=O)c2ccccc23)c1` (stereo not shown) [compound 26]: 557 nM. Regarding `COc1cccc(C2C3=C(NC(=S)N2C)c2ccccc2C3=O)c1` (stereo not shown) [compound 27], the IC50 is over 10000 nM. Still for that read-out and setting: the same measure for `COc1cccc(C2NC(=S)N(C)C3=C2C(=O)c2ccccc23)c1` (stereo not shown) [compound 28]: about 85 nM; for `COCCCOc1cccc([C@H]2NC(=S)NC3=C2C(=O)c2ccccc23)c1` [compound 29]: about 13 nM. For the compound `COCCCOc1cccc([C@@H]2NC(=S)NC3=C2C(=O)c2ccccc23)c1` [compound 30], the IC50 was over 10000 nM. On the same count and under the same terms, the same measure for `O=C1C2=C(NC(=S)NC2c2cccc(-c3ccc(C(F)(F)F)cc3)c2)c2ccccc21` (stereo not shown) [compound 31]: over 10000 nM; for `O=C1C2=C(NC(=S)NC2c2cncc(Br)c2)c2ccccc21` (stereo not shown) [compound 32]: 1670 nM.

(Values after US20110124666A1, “3,4-DIHYDROPYRIMIDINE TRPA1 ANTAGONISTS” (Janssen Pharmaceutica NV a corporation, priority 2008, published 2011).)
